Experimental data as given in PubChem BioAssay (NCI).
Several values for one entry are separate records, joined by “and”; a condition that tells them apart may be missing. Equal values may be shown once.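 Method: 48-hour compound exposure of cells in 96-well plates, five concentrations, linear interpolation of endpoints. Definition used: TGI = concentration required for complete inhibition of growth.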

Legend:
Experiment in all cases: NCI-60 cell line screen, 48 h
MDA-MB-231 breast = tested on: MDA-MB-231 breast
SNB-75 CNS = tested on: SNB-75 CNS
NCI/ADR-RES ovarian = tested on: NCI/ADR-RES ovarian
CAKI-1 renal = tested on: CAKI-1 renal
SF-539 CNS = tested on: SF-539 CNS
KM12 colon = tested on: KM12 colon
CCRF-CEM leukemia = tested on: CCRF-CEM leukemia
HCC-2998 colon = tested on: HCC-2998 colon

Row | SMILES | TGI (MDA-MB-231 breast) [µM] | TGI (SNB-75 CNS) | TGI (NCI/ADR-RES ovarian) [µM] | TGI (CAKI-1 renal) [µM] | TGI (SF-539 CNS) [µM] | TGI (KM12 colon) [µM] | TGI (CCRF-CEM leukemia) [µM] | TGI (HCC-2998 colon) [µM]
1 | COC(=O)c1cc(C(=CCC[C@H]2CC[C@@]3(C)C(CCC4C3CC[C@@]3(C)C4CC[C@@H]3C(C)CCCC(C)C)C2)c2cc(Cl)c(O)c(C(=O)OC)c2)cc(Cl)c1O (stereo partly drawn) | > 10 | > 10 µM | > 10 | > 10 | > 10 | > 10 | > 10 | > 10
2 | CC(C)NC(=O)N(Nc1ccccc1)C(C)(C)C | > 100 | > 100 µM | > 100 | > 100 | > 100 | > 100 | > 100 | > 100
3 | C/C=C(\C)C(O)C(C)C(O)C/C=C(C)/C=C(\C)C/C(C)=C/C/C=C(\C)C(O)C(C)c1ccc(CCC)c(=O)o1 (stereo not drawn) | 26.4 | 25.2 µM | 29.7 | 31.8 | 28.2 | 23.8 | > 100 | 26.4
4 | Cc1c2c(c(O)c3c(O)cccc13)C(=O)C1(O)C(O)=C(C(=O)NCNc3ccc(C(N)=O)cn3)C(=O)C(N(C)C)C1C2 (stereo not drawn) | > 100 | 9.22 µM | > 100 | 48.4 | 7.42 | 15.6 | 8.31 | 8.66
5 | COC1CN(C)C(=Nc2cccc3ccccc23)S1 (stereo not drawn) | > 10 | > 10 µM | > 10 | > 10 | > 10 | > 10 | > 10 | > 10
6 | OC(c1ccc(C(F)(F)F)cc1)C(F)(F)c1nc2ccccc2o1 (stereo not drawn) | > 100 | > 100 µM | > 100 | > 100 | > 100 | > 100 | > 100 | > 100
7 | COC(=O)C(Cc1c[nH]c2ccccc12)NC(=O)c1ccc(-c2ccc(Cl)cc2Cl)o1 (stereo not drawn) | > 100 | > 100 µM | > 100 | > 100 | 91 | > 100 | > 100 | 48.5
8 | O=C(O)CCSCc1ccccc1 | > 100 | > 100 µM | > 100 | > 100 | > 100 | > 100 | > 100 | > 100
9 | CN(C)C(c1ccccc1)C1COC2Cc3ccccc3C1O2 (stereo not drawn) | > 100 | 89 µM and 89.4 µM | > 100 | > 100 | > 100 | > 100 | > 100 | > 100
10 | COC(O)C(=O)c1ccc2c(c1)CC1(C2)Cc2cc3c(cc2C1=O)CCC3 (stereo not drawn) | 73.3 | 37.5 µM | > 100 | 31.2 | 35.4 | 43.9 | 48 | 38.6
11 | Cc1ccc(S(=O)(=O)Oc2nc3ccccc3nc2OS(=O)(=O)c2ccc(C)cc2)cc1 | > 100 | > 100 µM | > 100 | 82.4 | > 100 | > 100 | > 100 | > 100
